In paper PMC9551036, “A selective and orally bioavailable VHL-recruiting PROTAC achieves SMARCA2 degradation in vivo” (Nature Communications, 2022):
Where “and” joins values, the source holds several entries; their conditions need not be identical. Identical values can stand only once. Entries after “also recorded” stand apart in the source; their conditions may differ.

Assays:
[1] = tested on: NCI-H1568 tumour xenograft; experiment: NCI-H1568 xenograft tumour growth; format: in vivo, mouse; conditions: for Tumor volume: qd, individual animals; for TGI: NCI-H1568 xenograft, day 17
Procedure: (§1) To establish subcutaneous tumours, mice were injected with 5 × 10^6 NCI-H1568 in PBS with 5% FCS or with 1 × 10^7 A549 cells in PBS with 5% FCS. Tumour diameters were measured with a caliper three times a week. The volume of each tumour (in mm^3) was calculated according to the formula [tumour volume = length × diameter^2 × π/6]. To monitor side effects of treatment, mice were inspected daily for abnormalities and body weight was determined daily after the start of treatment. Animals were sacrificed when the tumours reached a size of 1500 mm^3. Mice were randomised into treatment groups when the average tumour size reached ~210–220 mm^3. Group sizes were calculated individually for each tumour model based on tumour growth during model establishment experiments. A power analysis was performed using a sample size calculator (https://www.stat.ubc.ca/~rollin/stats/ssize/n2.html). For both models used in the study, 10 mice per group were used for each experiment. All administrations were dosed with 10 ml/kg (s.c. and oral). Control mice were dosed subcutaneously with 10% HP-β-CD in 50% Ringer solution and orally with 15% HP-β-CD, that means the control mouse treatment was corresponding to the solvent of the compounds. Compound 6 was dosed subcutaneously either in a d1-4 q3d, d6-8 q2d, d11-13 q2d treatment (Treatment 1) or a q3 or 4d treatment (Treatment 2).
For the evaluation of the statistical significance of tumour growth inhibition, a one-tailed nonparametric Mann-Whitney-Wilcoxon U-test was performed, based on the hypothesis that an effect would only be measurable in one direction (i.e. expectation of tumour inhibition but not tumour stimulation). Analysis was performed on the day indicated for each experiment. The p values obtained from the U-test were adjusted using the Bonferroni-Holm correction. By convention, p values ≤0.05 indicate significance of differences.

SMARCA2 [2] = target: T1, SMARCA2 (Homo sapiens, UniProt P51531); experiment: SMARCA2 IHC in A549 xenograft tumours; format: in vivo, mouse; parameters: from tissue; host or cells: subcutaneous NCI-H1568 or A549 xenograft tumours in BomTac:NMRI-Foxn1nu mice
Procedure: as §1
Xenograft samples were fixed in 10% formaldehyde for 24 h and later moved to ethanol and embedded in paraffin. 2 µm-thick sections were cut using a microtome, then placed on glass slides ([…], silan printer slides PR-S:001), and subsequently dewaxed. […] All slides were reviewed and evaluated for quality by a board-certified MD specialist in Anatomic Pathology (PC). […] A positivity threshold for DAB OD was determined by normalisation with respect to the DAB OD as calculated from bona fide negative tissue (e.g. murine stroma as background). The average, background-normalised DAB OD of tumour cell nuclei was used to quantitate SMARCA2 expression in each xenograft sample.

SMARCA2 [3] = target: T1, SMARCA2; experiment: Western blot of SMARCA2 degradation in NCI-H1568 cells; format: cell-based; parameters: endogenous in cells; host or cells: RKO, NCI-H1568, A549, HCT116, LU99, HCC-364, HCT-15, HCC4006, SK-N-AS
Procedure: Cells were seeded into 6-well plates 24 h before treatment. Next day, several wells were treated with compounds or DMSO as indicated, washed with PBS and lysed with lysis buffer (1% Triton X-100, 150 mM NaCl, 1 mM EDTA, 50 mM Tris pH 7.4, protease inhibitor cocktail (Roche), 50 units/mL benzonase nuclease (Sigma)). Lysates were cleared by centrifugation at 4 °C, at 15,800 × g for 10 min and the supernatants stored at −20 °C. Protein concentration was determined by BCA assay (Pierce) and the absorbance at 562 nm measured by spectrophotometry (NanoDrop ND1000). […] Western blot images were obtained through detection of SMARCA2 (Sigma #HPA029981 RRID:AB_10602406 1:1000), SMARCA4 (Abcam #ab108318 clone EPR3912 RRID:AB_10889900 1:1000), PBRM1 (Bethyl Laboratories #A301-591A RRID:AB_1078808 1:1000), β-actin (Cell Signalling #4970 clone 13E5 RRID:AB_2223172 1:2500) and GAPDH (Abcam #ab9485 RRID:AB_307275 1:2500) antibodies with IRDye 800CW donkey anti-rabbit secondary antibody (LI-COR #926-32213 RRID:AB_621848 1:10000) using a ChemiDoc MP imaging system (Bio-Rad). Western blots were quantified using Image Studio Lite (Licor, version 5.2) with normalisation to loading control and DMSO and further analysed using GraphPad Prism (version 9.2.0).

[4] = SuppFig3a, 10 nM, per replicate
[5] = SuppFig3a, 100 nM, per replicate
[6] = SuppFig3a, 1000 nM, per replicate
[7] = SuppFig3c, compound 100 nM + MG132 10 uM
[8] = SuppFig3c, compound 100 nM + VH298 10 uM
[9] = SuppFig3c, compound 100 nM alone

T1 sequence (P51531 whole entry): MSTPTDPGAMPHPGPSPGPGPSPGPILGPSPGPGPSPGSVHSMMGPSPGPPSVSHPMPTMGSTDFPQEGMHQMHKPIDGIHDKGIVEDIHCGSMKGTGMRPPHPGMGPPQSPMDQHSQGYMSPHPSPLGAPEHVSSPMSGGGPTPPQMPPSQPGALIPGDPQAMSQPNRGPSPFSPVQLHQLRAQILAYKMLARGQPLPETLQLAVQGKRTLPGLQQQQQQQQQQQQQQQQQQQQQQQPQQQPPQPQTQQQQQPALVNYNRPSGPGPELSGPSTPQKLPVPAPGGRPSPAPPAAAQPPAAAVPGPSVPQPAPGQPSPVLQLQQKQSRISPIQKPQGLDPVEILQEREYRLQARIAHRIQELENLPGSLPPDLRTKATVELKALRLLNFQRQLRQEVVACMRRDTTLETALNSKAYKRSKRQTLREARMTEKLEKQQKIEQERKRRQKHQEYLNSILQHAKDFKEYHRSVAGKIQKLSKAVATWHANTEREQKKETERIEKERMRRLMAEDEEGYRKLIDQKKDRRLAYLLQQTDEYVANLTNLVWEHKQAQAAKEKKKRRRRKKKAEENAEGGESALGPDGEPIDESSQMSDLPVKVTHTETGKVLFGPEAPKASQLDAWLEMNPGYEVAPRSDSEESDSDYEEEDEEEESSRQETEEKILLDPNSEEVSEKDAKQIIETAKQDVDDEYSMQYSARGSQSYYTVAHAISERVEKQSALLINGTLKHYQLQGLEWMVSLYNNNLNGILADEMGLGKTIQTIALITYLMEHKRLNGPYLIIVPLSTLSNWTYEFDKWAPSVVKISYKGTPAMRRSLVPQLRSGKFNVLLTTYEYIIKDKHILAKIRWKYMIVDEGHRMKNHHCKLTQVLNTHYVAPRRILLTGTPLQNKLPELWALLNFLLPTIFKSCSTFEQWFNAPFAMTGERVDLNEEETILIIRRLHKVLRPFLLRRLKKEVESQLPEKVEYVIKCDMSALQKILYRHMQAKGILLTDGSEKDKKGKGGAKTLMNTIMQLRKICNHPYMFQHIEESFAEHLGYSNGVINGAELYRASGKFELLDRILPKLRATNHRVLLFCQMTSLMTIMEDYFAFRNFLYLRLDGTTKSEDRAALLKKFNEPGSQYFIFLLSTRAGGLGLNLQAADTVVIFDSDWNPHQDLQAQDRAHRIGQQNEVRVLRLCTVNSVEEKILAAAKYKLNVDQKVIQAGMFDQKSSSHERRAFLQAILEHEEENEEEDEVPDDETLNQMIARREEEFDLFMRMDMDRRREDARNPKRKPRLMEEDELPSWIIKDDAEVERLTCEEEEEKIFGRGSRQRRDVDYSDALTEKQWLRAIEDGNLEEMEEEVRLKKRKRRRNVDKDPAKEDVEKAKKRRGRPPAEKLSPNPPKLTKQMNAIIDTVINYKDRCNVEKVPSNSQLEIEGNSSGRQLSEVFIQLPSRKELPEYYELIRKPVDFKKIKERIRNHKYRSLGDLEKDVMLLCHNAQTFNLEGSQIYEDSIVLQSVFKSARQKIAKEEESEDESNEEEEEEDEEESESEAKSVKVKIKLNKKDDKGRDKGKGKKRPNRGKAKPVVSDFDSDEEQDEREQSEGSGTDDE

For Cc1ncsc1-c1ccc([C@H](CCCCCN2CCC(c3ccc4c(c3)n(C3CCCC3)c3nc(=O)c5c(Br)cccc5n43)CC2)NC(=O)[C@@H]2C[C@@H](O)CN2C(=O)[C@@H](NC(=O)C2(F)CC2)C(C)(C)C)cc1 [compound 11], the Tumor volume ([1]; 30 mg/kg, Day 8) was 349.89 mm3 and 236.13 mm3 and 336.08 mm3 and 316.23 mm3 and 320.2 mm3 and 407.12 mm3 and 452.47 mm3 and 403.17 mm3 and 435.99 mm3 and 529.54 mm3, the Tumor volume ([1]; 30 mg/kg, Day 10) was 411.87 mm3 and 252.06 mm3 and 344.92 mm3 and 322.48 mm3 and 362.94 mm3 and 435.47 mm3 and 364.71 mm3 and 506.51 mm3 and 466.2 mm3 and 503.81 mm3 and the Tumor volume ([1]; 30 mg/kg, Day 13) was 502.78 mm3 and 248.86 mm3 and 360.62 mm3 and 361.29 mm3 and 382.81 mm3 and 518.2 mm3 and 443.39 mm3 and 514.01 mm3 and 521.41 mm3 and 705.33 mm3. For the same compound, the Tumor volume ([1]; 30 mg/kg, Day 15) was 496.47 mm3 and 228.27 mm3 and 504.98 mm3 and 354.71 mm3 and 479.1 mm3 and 517.42 mm3 and 432.15 mm3 and 457.1 mm3 and 602.75 mm3 and 762.29 mm3, the Tumor volume ([1]; 30 mg/kg, Day 17) was 650.01 mm3 and 225.32 mm3 and 455.8 mm3 and 341.13 mm3 and 487.7 mm3 and 435.26 mm3 and 381.47 mm3 and 461.01 mm3 and 569.17 mm3 and 686.8 mm3 and the Tumor volume ([1]; 100 mg/kg, Day 8) was 173.57 mm3 and 358.5 mm3 and 211.9 mm3 and 263.4 mm3 and 447.51 mm3 and 347.41 mm3 and 368.98 mm3 and 478.34 mm3 and 381.06 mm3 and 544.49 mm3. For the same compound, the Tumor volume ([1]; 100 mg/kg, Day 10) was 207.49 mm3 and 318.53 mm3 and 166.3 mm3 and 272.68 mm3 and 439.29 mm3 and 419.1 mm3 and 347.63 mm3 and 427.12 mm3 and 399.48 mm3 and 552.76 mm3, the Tumor volume ([1]; 100 mg/kg, Day 13) was 196.26 mm3 and 416.62 mm3 and 227.85 mm3 and 452.58 mm3 and 404.81 mm3 and 268.98 mm3 and 439.16 mm3 and 468.07 mm3 and 536.7 mm3 and the Tumor volume ([1]; 100 mg/kg, Day 15) was 224.98 mm3 and 458.86 mm3 and 260 mm3 and 554.09 mm3 and 490.11 mm3 and 263.77 mm3 and 439.21 mm3 and 536.89 mm3 and 543.63 mm3. The Tumor volume ([1]; 100 mg/kg, Day 17) was 221.9 mm3 and 357.16 mm3 and 324.28 mm3 and 608.34 mm3 and 580.36 mm3 and 307.51 mm3 and 368.83 mm3 and 566.83 mm3 and 599.71 mm3, the Tumor volume ([1]; 100 mg/kg, Day 20) was 230.91 mm3 and 452.52 mm3 and 264.14 mm3 and the TGI ([1]; 30 mg/kg p.o. daily) was 64%. The TGI ([1]; 100 mg/kg p.o. daily) was 76%.
For Cc1ncsc1-c1ccc(C(CCC(C)CCN2CCC(c3ccc4c(c3)n(C3CCCC3)c3nc(=O)c5c(Br)cccc5n43)CC2)NC(=O)C2CC(O)CN2C(=O)C(NC(=O)C2(F)CC2)C(C)(C)C)cc1 (stereo not drawn) [ACBI2], the “SMARCA2 staining in tumours at the end of the efficacy study” value (SMARCA2 [2]; A549 xenograft, 80 mg/kg p.o. once daily, 80 mg/kg) was “reduced to background levels; also recorded: decreased to background levels”, the “SMARCA2 (OD, normalised)” value (SMARCA2 [2]; Fig4h, 80 mg/kg po qd, background OD 0.05910 subtracted) was 0.00000 and the “Avg Stain 1 Nuclear OD” value (SMARCA2 [2]; Fig4h, 80 mg/kg po qd, per animal) was 0.04104 and 0.05262 and 0.08316 and 0.0589 and 0.03791 and 0.04411. For the same compound, the “SMARCA2 degradation, % DMSO” value (SMARCA2 [3]; SuppFig3a, 1 nM, per replicate) was 73.2377 % DMSO and 115.98 % DMSO and 86.1519 % DMSO, the “smarca2/actin norm to DMSO” value (SMARCA2 [3]; SuppFig3a, 1 nM, per replicate) was 0.7324 and 1.1598 and 0.8615 and the “SMARCA2 degradation, % DMSO” value (SMARCA2 [3]; [4]) was 22.5404 % DMSO and 46.107 % DMSO and 14.5628 % DMSO. For the same compound, the “smarca2/actin norm to DMSO” value (SMARCA2 [3]; [4]) was 0.2254 and 0.4611 and 0.1456, the “SMARCA2 degradation, % DMSO” value (SMARCA2 [3]; [5]) was 4.651 % DMSO and 9.376 % DMSO and 28.142 % DMSO and the “smarca2/actin norm to DMSO” value (SMARCA2 [3]; [5]) was 0.04651 and 0.09376 and 0.2814. The “SMARCA2 degradation, % DMSO” value (SMARCA2 [3]; [6]) was 10.8582 % DMSO and 28.1242 % DMSO and 17.6912 % DMSO, the “smarca2/actin norm to DMSO” value (SMARCA2 [3]; [6]) was 0.1086 and 0.2812 and 0.1769 and the “SMARCA2 - combination with inhibitors, % DMSO” value (SMARCA2 [3]; [7]) was 144.315 % DMSO and 128.607 % DMSO and 88.3654 % DMSO. The “smarca2/actin norm to DMSO” value (SMARCA2 [3]; [7]) was 1.443 and 1.286 and 0.8837, the “SMARCA2 - combination with inhibitors, % DMSO” value (SMARCA2 [3]; [8]) was 71.7463 % DMSO and 98.6474 % DMSO and 62.3416 % DMSO and the “smarca2/actin norm to DMSO” value (SMARCA2 [3]; [8]) was 0.7175 and 0.9865 and 0.6234. For the same compound, the “SMARCA2 - combination with inhibitors, % DMSO” value (SMARCA2 [3]; [9]) was 15.1306 % DMSO and 12.518 % DMSO and 13.0375 % DMSO and the “smarca2/actin norm to DMSO” value (SMARCA2 [3]; [9]) was 0.1513 and 0.1252 and 0.1304.
